Experimental data published in patent US20230312578A1, “6H-INDOLO[2,3-B]QUINOXALINE DERIVATIVES USEFUL IN THERAPY” (Vironova Medical AB, priority 2020, published 2023).
Read-outs that look alike come from different tables or passages of the source.

How the values were obtained:
Format in all cases: cell-based
[1] = tested on: CCRF-CEM; test: Human tumor cell line growth assay (SRB); conditions: Leukemia, 48 h; for CC50: read-out: LC50 (the source's name)
[2] = tested on: HL-60(TB); test: Human tumor cell line growth assay (SRB); conditions: Leukemia, 48 h
[3] = Human tumor cell line growth assay (SRB); conditions: human, SR cells (leukemia), read-out: LC50
[4] = tested on: SR; test: Human tumor cell line growth assay (SRB); conditions: Homo sapiens, Leukemia, 48 h
[5] = Human tumor cell line growth assay (SRB); conditions: human, A549/ATCC cells (NSCLC), read-out: LC50
[6] = tested on: A549/ATCC; test: Human tumor cell line growth assay (SRB); conditions: Homo sapiens, NSCLC, 48 h
[7] = Human tumor cell line growth assay (SRB); conditions: human, EKVX cells (NSCLC), read-out: LC50
[8] = tested on: EKVX; test: Human tumor cell line growth assay (SRB); conditions: Homo sapiens, NSCLC, 48 h
[9] = Human tumor cell line growth assay (SRB); conditions: human, HOP-62 cells (NSCLC), HOP-62, 48 h, read-out: LC50
[10] = tested on: HOP-62; test: Human tumor cell line growth assay (SRB); conditions: Homo sapiens; NSCLC, HOP-62, 48 h
[11] = Human tumor cell line growth assay (SRB); conditions: human, NCI-H226 cells (NSCLC), NCI-H226, 48 h, read-out: LC50
[12] = tested on: NCI-H226; test: Human tumor cell line growth assay (SRB); conditions: Homo sapiens; NSCLC, NCI-H226, 48 h
[13] = Human tumor cell line growth assay (SRB); conditions: human, NCI-H23 cells (NSCLC), NCI-H23, 48 h, read-out: LC50
[14] = tested on: NCI-H23; test: Human tumor cell line growth assay (SRB); conditions: Homo sapiens; NSCLC, NCI-H23, 48 h
[15] = Human tumor cell line growth assay (SRB); conditions: human, HCT-116 cells (colon), HCT-116, 48 h, read-out: LC50
[16] = tested on: HCT-116; test: Human tumor cell line growth assay (SRB); conditions: Homo sapiens; Colon, HCT-116, 48 h
[17] = Human tumor cell line growth assay (SRB); conditions: human, SW-620 cells (colon), SW-620, 48 h
[18] = tested on: SW-620; test: Human tumor cell line growth assay (SRB); conditions: Homo sapiens; Colon, SW-620, 48 h
[19] = Human tumor cell line growth assay (SRB); conditions: human, SNB-19 cells (CNS), SNB-19, 48 h, read-out: LC50
[20] = tested on: SNB-19; test: Human tumor cell line growth assay (SRB); conditions: Homo sapiens; CNS, SNB-19, 48 h
[21] = Human tumor cell line growth assay (SRB); conditions: human, SNB-75 cells (CNS), SNB-75, 48 h
[22] = tested on: SNB-75; test: Human tumor cell line growth assay (SRB); conditions: Homo sapiens; CNS, SNB-75, 48 h
[23] = Human tumor cell line growth assay (SRB); conditions: human, MALME-3M cells (melanoma), read-out: LC50
[24] = tested on: MALME-3M; test: Human tumor cell line growth assay (SRB); conditions: Homo sapiens, Melanoma, 48 h
[25] = Human tumor cell line growth assay (SRB); conditions: human, SK-MEL-2 cells (melanoma), SK-MEL-2, 48 h, read-out: LC50
[26] = tested on: SK-MEL-2; test: Human tumor cell line growth assay (SRB); conditions: Homo sapiens; Melanoma, SK-MEL-2, 48 h
[27] = Human tumor cell line growth assay (SRB); conditions: human, UACC-257 cells (melanoma), UACC-257, 48 h, read-out: LC50
[28] = tested on: UACC-257; test: Human tumor cell line growth assay (SRB); conditions: Homo sapiens; Melanoma, UACC-257, 48 h
[29] = tested on: SK-OV-3; test: Human tumor cell line growth assay (SRB); conditions: Ovarian, SK-OV-3, 48 h; for CC50: read-out: LC50 (the source's name)
[30] = tested on: 786-0; test: Human tumor cell line growth assay (SRB); conditions: Renal, 786-0, 48 h
[31] = tested on: CAKI-1; test: Human tumor cell line growth assay (SRB); conditions: Renal, CAKI-1, 48 h; for CC50: read-out: LC50 (the source's name)
[32] = tested on: RXF 393; test: Human tumor cell line growth assay (SRB); conditions: Renal, RXF 393, 48 h; for CC50: read-out: LC50 (the source's name)
[33] = tested on: TK-10; test: Human tumor cell line growth assay (SRB); conditions: Renal, TK-10, 48 h; for CC50: read-out: LC50 (the source's name)
[34] = tested on: PC-3; test: Human tumor cell line growth assay (SRB); conditions: Prostate, PC-3, 48 h
[35] = tested on: MDA-MB-231/ATCC; test: Human tumor cell line growth assay (SRB); conditions: Breast, 48 h
[36] = tested on: HS 578T; test: Human tumor cell line growth assay (SRB); conditions: Breast, 48 h; for CC50: read-out: LC50 (the source's name)
[37] = tested on: LOX IMVI; test: Human tumor cell line growth assay (SRB); conditions: Homo sapiens, Melanoma, 48 h
[38] = read-out: LC50 (the source's name)

Structure (SMILES): Cc1cc2nc3c4cc([N+](=O)[O-])ccc4n(CCN(C)C)c3nc2cc1C [JBA-185, 2-(2,3-dimethyl-9-nitro-6H-indolo[2,3-b]quinoxalin-6-yl)-N,N-dimethylethanamine]
- GI50 [1]: 642 nM
- CC50 [1]: > 100 µM
- GI50 [2]: 914 nM
- CC50 [2, 38]: > 100 µM
- CC50 at 48 h [3]: > 100 µM
- GI50 [4]: 250 nM
- CC50 at 48 h [5]: 94.4 µM
- GI50 [6]: 387 nM
- CC50 at 48 h [7]: > 100 µM
- GI50 [8]: 477 nM
- CC50 at 48 h [9]: > 100 µM
- GI50 [10]: 507 nM
- CC50 at 48 h [11]: > 100 µM
- GI50 [12]: 521 nM
- CC50 at 48 h [13]: 22.6 µM
- GI50 [14]: 492 nM
- CC50 at 48 h [15]: 94.2 µM
- GI50 [16]: 355 nM
- LC50 (50% lethal concentration) at 48 h [17]: > 100 µM
- GI50 [18]: 302 nM
- CC50 at 48 h [19]: > 100 µM
- GI50 [20]: 493 nM
- LC50 (concentration killing 50% of cells) at 48 h [21]: 5.45 µM
- GI50 [22]: 447 nM
- CC50 at 48 h [23]: 5.1 µM
- GI50 [24]: 542 nM
- CC50 at 48 h [25]: 9.02 µM
- GI50 [26]: 1040 nM
- CC50 at 48 h [27]: 34.4 µM
- GI50 [28]: 732 nM
- GI50 [29]: 704 nM
- CC50 [29]: > 100 µM
- GI50 [30]: 757 nM
- LC50 [30]: 9.56 µM
- GI50 [31]: 251 nM
- CC50 [31]: 7.48 µM
- GI50 [32]: 638 nM
- CC50 [32]: 5.5 µM
- GI50 [33]: 371 nM
- CC50 [33]: > 100 µM
- GI50 [34]: 187 nM
- CC50 [34, 38]: > 100 µM
- GI50 [35]: 495 nM
- CC50 [35, 38]: > 100 µM
- GI50 [36]: 1570 nM
- CC50 [36]: > 100 µM

Structure (SMILES): Cc1cc2nc3c4cc(O)ccc4n(CCN(C)C)c3nc2cc1C [JBD-139, 6-(2-(dimethylamino)ethyl)-2,3-dimethyl-6H-indolo [2,3-b]quinoxalin-9-ol]
- GI50 [1]: 468 nM
- CC50 [1]: > 100 µM
- GI50 [2]: 356 nM
- CC50 at 48 h [3]: > 100 µM
- GI50 [4]: 289 nM
- GI50 [6]: 358 nM
- GI50 [8]: 1100 nM
- CC50 at 48 h [9]: > 100 µM
- GI50 [10]: 569 nM
- CC50 at 48 h [11]: 19.5 µM
- GI50 [12]: 1340 nM
- GI50 [14]: 506 nM
- GI50 [16]: 326 nM
- GI50 [18]: 320 nM
- CC50 at 48 h [19]: > 100 µM
- GI50 [20]: 423 nM
- LC50 (concentration killing 50% of cells) at 48 h [21]: > 100 µM
- GI50 [22]: 214 nM
- GI50 [37]: 338 nM
- GI50 [24]: 623 nM
- GI50 [26]: 1100 nM
- GI50 [28]: 597 nM
- GI50 [29]: 1160 nM
- CC50 [29]: > 100 µM
- GI50 [30]: 707 nM
- GI50 [31]: 259 nM
- CC50 [31]: 5.31 µM
- GI50 [32]: 671 nM
- CC50 [32]: 5.96 µM
- GI50 [33]: 1740 nM
- CC50 [33]: > 100 µM
- GI50 [34]: 491 nM
- GI50 [35]: 544 nM
- GI50 [36]: 1400 nM
- CC50 [36]: > 100 µM
